According to patent US9951010B2, “Compounds as CRTH2 antagonist and uses thereof” (SUNSHINE LAKE PHARMA CO., LTD., priority 2014, dated 2018):
Counter-ions that a name gives are not always drawn.

Molecular target: T1, CRTH2 receptor (Homo sapiens, UniProt Q9Y5Y4)
T1 construct: expressed in transfected cells; host or cells: CHO-K1/G cells
T1 sequence (Q9Y5Y4 1-395): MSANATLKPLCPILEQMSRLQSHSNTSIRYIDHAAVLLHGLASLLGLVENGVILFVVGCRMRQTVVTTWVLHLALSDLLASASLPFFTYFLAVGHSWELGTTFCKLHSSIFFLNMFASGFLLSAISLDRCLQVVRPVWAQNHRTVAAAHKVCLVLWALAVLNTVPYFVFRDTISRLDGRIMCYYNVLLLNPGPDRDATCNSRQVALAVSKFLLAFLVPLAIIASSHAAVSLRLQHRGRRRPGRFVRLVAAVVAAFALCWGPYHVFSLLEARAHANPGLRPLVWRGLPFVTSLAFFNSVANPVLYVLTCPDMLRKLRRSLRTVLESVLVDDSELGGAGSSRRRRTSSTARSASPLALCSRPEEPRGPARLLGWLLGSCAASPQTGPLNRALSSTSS
Assay: FLIPR detection of inhibitory activity against CRTH2 (CHO-K1/G cells, PGD2 as agonist)
Assay type: cell-based
Conditions: CHO-K1/G cells with stable expression of CRTH2 receptor, PGD2 at EC80, FLIPR
Method: The test compound was weighed accurately and then dissolved in a suitable amount of DMSO to prepare a stock solution at a concentration of 10 mM; after clear and transparent, the stock solution was subpackaged and cryostoraged at −20° C. for use. Before testing, the test compound was diluted with balanced salt solution (HBSS buffer, containing 4-(2-hydroxyethyl)piperazine-1-ethanesulfonicacid) at a concentration of 20 mM) to 5 times testing concentration.
CHO-K1/G cells with stable expression of CRTH2 receptor were prepared to 5 times testing concentration and seeded into 384-microwell plate, and incubated in an incubator at 37° C./5% CO2. After incubating for 18 hours, to the cells in 384-microwell plate was added 20 μL of dye followed by the addition of 10 μL of prepared test compound solution. And then the cell plate was incubated in the incubator at 37° C./5% CO2 for 1 hour, at last which was balanced at rt for 15 min. After adding 12.5 μL of positive agonist (PGD2) at a concentration of 5 times EC80 to each well of the cell plate, the RFU (fluorescence intensity) value of the test compound was detected.
The data were recorded from ScreenWorks (version 3.1), and collected and analyzed by using Excel and GraphPad Prism 6 software to calculate the values of IC50.

Cc1c(C2CCC(N(C)C(=O)c3ccc4ccccc4n3)CC2)c2cc(F)ccc2n1CC(=O)O (single isomer, unassigned) [Example 17a, 2-(5-fluoro-2-methyl-3-(4-(N-methylquinoline-2-carboxamido)cyclohexyl)-1H-indol-1-yl)acetic acid hydrochloride]
IC50: 600 nM

Cc1c(C2CCC(N(C)C(=O)c3ccc4ccccc4n3)CC2)c2cc(F)ccc2n1CC(=O)O (single isomer, unassigned) [Example 17b, 2-(5-fluoro-2-methyl-3-(4-(N-methylquinoline-2-carboxamido)cyclohexyl)-1H-indol-1-yl)acetic acid hydrochloride]
IC50: 97.2 nM

Cc1c(C2CCC(NC(=O)c3ccc4cccnc4n3)CC2)c2cc(F)ccc2n1CC(=O)O (single isomer, unassigned) [Example 20, 2-(3-(4-(1,8-naphthyridine-2-carboxamido)cyclohexyl)-5-fluoro-2-methyl-1H-indol-1-yl)acetic acid hydrochloride]
IC50: 39.8 nM

Cc1c(C2CCC(NC(=O)c3cccc4ncccc34)CC2)c2cc(F)ccc2n1CC(=O)O (single isomer, unassigned) [Example 26b, 2-(5-fluoro-2-methyl-3-(4-(quinoline-5-carboxamido)cyclohexyl)-1H-indol-1-yl)acetic acid hydrochloride]
IC50: 83.9 nM

Cc1c(C2CCC(NS(=O)(=O)c3ccc(F)cc3F)CC2)c2cc(F)ccc2n1CC(=O)O (single isomer, unassigned) [Example 29b, 2-(3-(4-(2,4-difluorophenylsulfonamido)cyclohexyl)-5-fluoro-2-methyl-1H-indol-1-yl)acetic acid]
IC50: 79.5 nM

O=C(O)Cn1cc(C2CCN(S(=O)(=O)c3ccc(F)cc3)CC2)c2ccccc21 [Control compound, reference compound]
IC50: 6190 nM

Cc1c(C2CCN(C(=O)c3cccc4ccccc34)CC2)c2cc(F)ccc2n1CC(=O)O [Example 2, 2-(3-(1-(1-naphthoyl)piperidin-4-yl)-5-fluoro-2-methyl-1H-indol-1-yl)acetic acid]
IC50: 674 nM

Cc1c(C2CCC(NC(=O)c3cccc4ccccc34)CC2)c2cc(F)ccc2n1CC(=O)O (centres unmarked) [Example 3, 2-(3-(4-(1-naphthamido)cyclohexyl)-5-fluoro-2-methyl-1H-indol-1-yl)acetic acid]
IC50: 265 nM

Cc1c(C2CCN(C(=O)c3ccc4ccccc4n3)CC2)c2cc(F)ccc2n1CC(=O)O [Example 4, 2-(5-fluoro-2-methyl-3-(1-(quinoline-2-carbonyl)piperidin-4-yl)-1H-indol-1-yl)acetic acid hydrochloride]
IC50: 306 nM

Cc1c(C2=CCCN(C(=O)c3ccc4ccccc4n3)C2)c2cc(F)ccc2n1CC(=O)O [Example 7, 2-(5-fluoro-2-methyl-3-(1-(quinoline-2-carbonyl)-1,2,5,6-tetrahydropyridin-3-yl)-1H-indol-1-yl)acetic acid hydrochloride]
IC50: 776 nM

Cc1c(C2=CCN(Cc3ccc4ccccc4n3)CC2)c2cc(F)ccc2n1CC(=O)O [Example 8, 2-(5-fluoro-2-methyl-3-(1-(quinolin-2-yl)methyl-1,2,3,6-tetrahydropyridin-4-yl)-1H-indol-1-yl)acetic acid dihydrochloride]
IC50: 657 nM

Cc1c(C2=CCN(C(=O)NCc3ccc(F)cc3F)CC2)c2cc(F)ccc2n1CC(=O)O [Example 9a, 2-(3-(1-((2,4-difluorobenzyl)carbamoyl)-1,2,3,6-tetrahydropyridin-4-yl)-5-fluoro-2-methyl-1H-indol-1-yl)acetic acid]
IC50: 192 nM

Cc1c(C2CCC(NC(=O)c3cccc4c(F)cccc34)CC2)c2cc(F)ccc2n1CC(=O)O (centres unmarked) [Example 10, 2-(5-fluoro-3-(4-(5-fluoro-1-naphthamido)cyclohexyl)-2-methyl-1H-indol-1-yl)acetic acid]
IC50: 545 nM

Cc1c(C2CCC(NC(=O)NCc3ccc(F)cc3F)CC2)c2cc(F)ccc2n1CC(=O)O (centres unmarked) [Example 16, 2-(3-(4-(3-(2,4-difluorobenzyl)ureido)cyclohexyl)-5-fluoro-2-methyl-1H-indol-1-yl)acetic acid]
IC50: 969 nM

Cc1c(C2CC(NC(=O)c3ccc4ccccc4n3)C2)c2cc(F)ccc2n1CC(=O)O (centres unmarked) [Example 21, 2-(5-fluoro-2-methyl-3-(3-(quinoline-2-carboxamido)cyclobutyl)-1H-indol-1-yl)acetic acid hydrochloride]
IC50: 185 nM

Cc1c(C2=CCCN(C(=O)c3cccc4ccccc34)C2)c2cc(F)ccc2n1CC(=O)O [Example 23, 2-(3-(1-(1-naphthoyl)-1,2,5,6-tetrahydropyridin-3-yl)-5-fluoro-2-methyl-1H-indol-1-yl)acetic acid]
IC50: 866 nM

Cc1c(C2CCC(N(C)S(=O)(=O)c3ccc(F)cc3)CC2)c2cc(F)ccc2n1CC(=O)O (centres unmarked) [Example 28, 2-(5-fluoro-3-(4-(4-fluoro-N-methylphenylsulfonamido)cyclohexyl)-2-methyl-1H-indol-1-yl) acetic acid]
IC50: 138 nM

Cc1c(C2CC(NS(=O)(=O)c3ccc(F)cc3)C2)c2cc(F)ccc2n1CC(=O)O (centres unmarked) [Example 32, 2-(5-fluoro-3-(3-(4-fluorophenylsulfonamido)cyclobutyl)-2-methyl-1H-indol-1-yl)acetic acid]
IC50: 33.7 nM

Cc1c(C2CCN(S(=O)(=O)c3ccc(Cl)cc3F)CC2)c2cc(F)ccc2n1CC(=O)O [Example 34, 2-(5-fluoro-3-(1-((4-chloro-2-fluorophenyl)sulfonyl)piperidin-4-yl)-2-methyl-1H-indol-1-yl) acetic acid]
IC50: 211 nM

Cc1c(C2CCN(S(=O)(=O)c3ccc(F)cc3Cl)CC2)c2cc(F)ccc2n1CC(=O)O [Example 35, 2-(5-fluoro-3-(1-((2-chloro-4-fluorophenyl)sulfonyl)piperidin-4-yl)-2-methyl-1H-indol-1-yl) acetic acid]
IC50: 333 nM

Cc1c(C2CCN(S(=O)(=O)c3ccc(Cl)cc3Cl)CC2)c2cc(F)ccc2n1CC(=O)O [Example 36, 2-(5-fluoro-3-(1-((2,4-dichlorophenyl)sulfonyl)piperidin-4-yl)-2-methyl-1H-indol-1-yl)acetic acid]
IC50: 422 nM

Cc1c(C2CCN(S(=O)(=O)c3ccc(O)cc3)CC2)c2cc(F)ccc2n1CC(=O)O [Example 37, 2-(5-fluoro-3-(1-((4-hydroxyphenyl)sulfonyl)piperidin-4-yl)-2-methyl-1H-indol-1-yl)acetic acid]
IC50: 137 nM

Cc1c(C2CCN(S(=O)(=O)c3ccccc3F)CC2)c2cc(F)ccc2n1CC(=O)O [Example 39, 2-(5-fluoro-3-(1-((2-fluorophenyl)sulfonyl)piperidin-4-yl)-2-methyl-1H-indol-1-yl)acetic acid]
IC50: 106 nM

Cc1c(C2CCCN(S(=O)(=O)c3ccc(F)cc3)C2)c2cc(F)ccc2n1CC(=O)O (centres unmarked) [Example 40, 2-(5-fluoro-3-(1-((4-fluorophenyl)sulfonyl)piperidin-3-yl)-2-methyl-1H-indol-1-yl)acetic acid]
IC50: 17.4 nM

Cc1c(C2CCN(S(=O)(=O)c3cccc4ccccc34)CC2)c2cc(F)ccc2n1CC(=O)O [Example 42, 2-(5-fluoro-2-methyl-3-(1-(naphthalen-1-ylsulfonyl)piperidin-4-yl)-1H-indol-1-yl)acetic acid]
IC50: 283 nM

Cc1c(C2CCN(S(=O)(=O)c3ccccc3)CC2)c2cc(F)ccc2n1CC(=O)O [Example 46, 2-(5-fluoro-2-methyl-3-(1-(phenylsulfonyl)piperidin-4-yl)-1H-indol-1-yl)acetic acid]
IC50: 317 nM
